{"source": "paper PMC7380166", "about": "“How to Study the Metabolism of New Psychoactive Substances for the Purpose of Toxicological Screenings—A Follow-Up Study Comparing Pooled Human Liver S9, HepaRG Cells, and Zebrafish Larvae” (Frontiers in Chemistry, 2020)", "key": {"[1]": {"test": "Incubations with pooled human liver S9 fraction (pHLS9), metabolite identification by LC-HRMS/MS", "assay_type": "in vitro ADME", "conditions": "for Absolute peak area, pHLS9 1 h [25 μM] / Absolute peak area, pHLS9 6 h [25 μM]: 25 μM 4F-MDMB-BINACA, one replicate of n = 2, n.d. = not detected; for Absolute peak area, pHLS9 1 h [25 μM]: 1 h incubation; for Absolute peak area, pHLS9 6 h [25 μM]: 6 h incubation", "description": "According to published procedures (Richter et al., [2017b], [2019b]; Caspar et al., [2018b]; Wagmann et al., [2019b],[c]), the final incubation volume per reaction tube was 150 μl, with a final protein concentration of 2 mg/ml. The given concentrations represent final concentrations. A preincubation for 10 min at 37°C with UGT reaction mixture solution B (containing alamethicin, 25 μg/ml), MgCl2 (2.5 mM), NADP^+ (0.6 mM), isocitrate (2.5 mM), isocitrate dehydrogenase (0.8 U/ml), superoxide dismutase (100 U/ml), acetyl coenzyme A (0.1 mM), phosphate buffer (90 mM, pH 7.4), and pHLS9 (2 mg/ml) was done. Afterwards, UGT reaction mixture solution A (containing UDP glucuronic acid, 2.5 mM), PAPS (40 μM), SAM (1.2 mM), dithiothreitol (1 mM), and glutathione (10 mM) were added, as well as 25 μM 4F-MDMB-BINACA to start the reactions. The mixture was incubated for 360 min. Total amount of organic solvent in incubation mixtures was <2% (Chauret et al., [1998]). After 60 min, an aliquot of the reaction mixture (60 μl) was transferred in another reaction tube containing 20 μl of ice-cold acetonitrile to terminate the reactions. The remaining aliquot (90 μl) was incubated for an additional 300 min, and then the reactions were stopped by adding 30 μl of ice-cold acetonitrile. Thereafter, the reaction tubes were cooled at −20°C for 30 min prior to centrifugation at 18,407 × g for 2 min. The supernatants (50 μl) were transferred into autosampler vials, and 1 μl was injected onto the LC-HRMS/MS system. Control samples without pHLS9 and blank samples without substrate were prepared to confirm the absence of non-metabolically formed and interfering compounds, respectively. All incubations were performed in duplicate.\nAccording to a previous study (Richter et al., [2019a]), a Thermo Fisher Scientific (TF, Dreieich, Germany) Dionex UltiMate 3000 Rapid Separation (RS) UHPLC system with a quaternary UltiMate 3000 RS pump and an UltiMate 3000 RS autosampler controlled by the TF Chromeleon software version 6.8 was used. The LC system was coupled to an Orbitrap-based TF Q-Exactive Plus equipped with a heated electrospray ionization II (HESI-II) source. Calibration was done prior to analysis with a Positive Cal Mix (Supelco, Bellefonte, PA, USA) at a flow rate of 3 μl/min using a syringe pump. The conditions of the LC system were as follows: TF Accucore PhenylHexyl column (100 × 2.1 mm, 2.6 μm particle size); gradient elution with 2 mM ammonium formate solution containing 0.1% (v/v) formic acid (eluent A) and 2 mM ammonium formate solution in acetonitrile/methanol (50:50, v/v) containing 0.1% (v/v) formic acid, and 1% (v/v) water (eluent B). […] The following gradient was used: 0–1.0 min hold 1% B, 1–10 min to 99% B, 10–11.5 min hold 99% B, 11.5–13.5 min hold 1% B. The HESI-II source conditions were as follows: ionization mode, positive; heater temperature, 320°C; ion transfer capillary temperature, 320°C; sheath gas, 60 arbitrary units (AU); auxiliary gas, 10 AU; spray voltage, 4.00 kV; and S-lens RF level, 50.0. Mass spectrometry experiments were performed using high-resolution (HR) full scan mode and a targeted MS^2 mode with an inclusion list for each NPS. The inclusion list contained m/z values of metabolites, which were likely to be formed for example hydroxy, oxo, carboxy, dealkyl, demethylenylated, and defluorinated metabolites (phase I) as well as sulfates and glucuronides (phase II) and combinations of them. Full scan settings were as follows: resolution, 35,000; automatic gain control (AGC) target, 3e6; maximum injection time (IT), 120 ms; scan ranges, 3,4-DMA-NBOMe m/z 100–700, ephylone m/z 200–600, 4F-MDMB-BINACA m/z 150–700, 4F-PHP m/z 200–600, and 1P-LSD m/z 250–700. The settings for the targeted MS^2 mode with the respective inclusion lists were as follows: resolution, 17,500; AGC target, 2e5; maximum IT, 250 ms; loop count, 5; isolation window, 1.0 m/z; stepped normalized collision energy (NCE), 17.5, 35, 52.5%; pick others, enabled. […]"}, "CYP2A6": {"target": "T1, CYP2A6 (Homo sapiens, UniProt P11509)", "T1 construct": "purchased Corning; host or cells: baculovirus-transfected insect cell microsomes (Supersomes)", "T1 sequence (P11509 1-494)": "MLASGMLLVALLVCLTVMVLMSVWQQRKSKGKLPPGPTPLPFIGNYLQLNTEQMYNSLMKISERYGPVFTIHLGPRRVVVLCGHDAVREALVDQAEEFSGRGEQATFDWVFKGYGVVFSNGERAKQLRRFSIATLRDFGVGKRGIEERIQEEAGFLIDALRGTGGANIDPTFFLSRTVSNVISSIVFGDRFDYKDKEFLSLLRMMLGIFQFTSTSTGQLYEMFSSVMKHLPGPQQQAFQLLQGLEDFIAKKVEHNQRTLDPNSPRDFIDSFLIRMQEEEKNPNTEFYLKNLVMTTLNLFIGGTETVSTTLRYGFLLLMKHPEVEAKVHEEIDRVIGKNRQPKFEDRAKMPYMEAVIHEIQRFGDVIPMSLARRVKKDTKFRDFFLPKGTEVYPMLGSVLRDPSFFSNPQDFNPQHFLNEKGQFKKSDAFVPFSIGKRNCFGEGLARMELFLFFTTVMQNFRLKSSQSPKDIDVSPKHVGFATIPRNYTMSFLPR", "test": "Monooxygenases activity screening, CYP2A6", "assay_type": "in vitro ADME", "parameters": "key: +, detected; –: −, not detected", "conditions": "25 μM 4F-MDMB-BINACA, 50 pmol/ml enzyme, 30 min, 37°C, duplicate", "description": "According to an established protocol (Wagmann et al., [2016]), the final volume per reaction tube was 50 μl with a final 4F-MDMB-BINACA concentration of 25 μM and enzyme concentrations of 50 pmol/ml for CYP1A2, CYP2A6, CYP2B6, CYP2C8, CYP2C9, CYP2C19, CYP2D6, CYP2E1, CYP3A4, and CYP3A5, respectively, or 0.25 mg protein/ml for FMO3. Furthermore, the reaction mixture contained 90 mM phosphate buffer (pH 7.4), superoxide dismutase (200 U/ml), isocitrate (5 mM), MgCl2 (5 mM), isocitrate dehydrogenase (0.5 U/ml), and NADP^+ (1.2 mM). The phosphate buffer was replaced with Tris buffer (90 mM) for incubations with CYP2A6 and CYP2C9 according to the manufacturer's recommendation. All incubations were performed at 37°C for 30 min and terminated by adding 50 μl of ice-cold acetonitrile. Afterwards, the mixtures were centrifuged at 18,407 × g for 5 min, 70 μl of the supernatants was transferred into autosampler vials, and 1 μl was injected onto the LC-HRMS/MS system. Positive control incubations were performed with pHLM (1 mg microsomal protein/ml), and negative controls without enzyme were prepared to identify non-metabolically formed compounds. All incubations were done in duplicate."}}}
{"smiles": "COC(=O)C(NC(=O)c1nn(CCCCF)c2ccccc12)C(C)(C)C", "note": "(centres unmarked) [4F-MDMB-BINACA, methyl 2-[1-(4-fluorobutyl)-1H-indazole-3-carbonyl]amino-3,3-dimethylbutanoate]", "values": [{"measurement": "Number of phase I metabolites detected, pHLS9 [25 μM]", "setting": "[1]; 25 μM", "result": 15}, {"measurement": "Absolute peak area, pHLS9 1 h [25 μM]", "setting": "[1]", "result": "9.37E+08"}, {"measurement": "Absolute peak area, pHLS9 6 h [25 μM]", "setting": "[1]", "result": "2.17E+08"}, {"measurement": "Relative number of matches with the four most abundant signals in human plasma, pHLS9 [25 μM]", "setting": "[1]; plasma, human data for ephylone and 4F-PHP from Wagmann et al., [2019b]", "result": 100, "unit": "%"}, {"measurement": "Relative number of matches with the four most abundant signals in human urine, pHLS9 [25 μM]", "setting": "[1]; urine, human data for ephylone and 4F-PHP from Wagmann et al., [2019b]", "result": 75, "unit": "%"}]}
{"smiles": "O=C(O)c1nn(CCCCF)c2ccccc12", "note": "[MB1]", "values": [{"measurement": "Detection of metabolite in incubation with CYP2A6", "setting": "CYP2A6", "result": "–"}]}
{"smiles": "COC(=O)[C@@H](NC(=O)c1n[nH]c2ccccc12)C(C)(C)C", "note": "[MB4]", "values": [{"measurement": "Absolute peak area, pHLS9 1 h [25 μM]", "setting": "[1]", "result": "5.62E+06"}, {"measurement": "Absolute peak area, pHLS9 6 h [25 μM]", "setting": "[1]", "result": "2.82E+05"}, {"measurement": "Detection of metabolite in incubation with CYP2A6", "setting": "CYP2A6", "result": "–"}]}
{"smiles": "CC(C)(C)C(NC(=O)c1nn(CCCCF)c2ccccc12)C(=O)O", "note": "(centres unmarked) [MB8]", "values": [{"measurement": "Absolute peak area, pHLS9 1 h [25 μM]", "setting": "[1]", "result": "1.01E+08"}, {"measurement": "Absolute peak area, pHLS9 6 h [25 μM]", "setting": "[1]", "result": "2.77E+08"}, {"measurement": "Detection of metabolite in incubation with CYP2A6", "setting": "CYP2A6", "result": "–"}]}
{"smiles": "COC(=O)[C@@H](NC(=O)c1nn(CCCCO)c2ccccc12)C(C)(C)C", "note": "[MB11]", "values": [{"measurement": "Absolute peak area, pHLS9 1 h [25 μM]", "setting": "[1]", "result": "4.27E+06"}, {"measurement": "Absolute peak area, pHLS9 6 h [25 μM]", "setting": "[1]", "result": "3.89E+05"}, {"measurement": "Detection of metabolite in incubation with CYP2A6", "setting": "CYP2A6", "result": "–"}]}
{"smiles": "COC(=O)[C@@H](NC(=O)c1nn(CCCCF)c2ccccc12)C(C)(C)CO", "note": "[MB16]", "values": [{"measurement": "Absolute peak area, pHLS9 1 h [25 μM]", "setting": "[1]", "result": "1.70E+05"}, {"measurement": "Detection of metabolite in incubation with CYP2A6", "setting": "CYP2A6", "result": "–"}]}
